SMILES strings stand for the structures. Structures can show the parent of a compound that is named as a salt. Where two headings read alike, the source gives them in different places.

What is called IC50 is the concentration at which inhibition is half-maximal.

Data set [1] has as its system non-chloroquine resistant P. falciparum. Briefly: P. falciparum culture, 3H-hypoxanthine incorporation. It is filed as cell-based, Plasmodium falciparum. To be noted: Plasmodium falciparum. On the procedure: The parasite was grown in a human red blood cell culture (RPMI 1640, 7.5% bicarbonate, 50 µM hypoxanthine, 50 µg/ml gentamycin, and 7.5% human plasma) at 1% hematocrit and 2% parasitemia. Cultures containing predominantly ring forms were used; synchronization of the culture was performed if trophozoites represented more than 1–2% of the various developmental stages. Briefly, the culture was centrifuged and the supernatant replaced by 5% (isotonic) sorbitol. After 5 minutes at 37°C the culture was centrifuged again and the supernatant replaced by culture medium to obtain a final 1% hematocrit.
Drug testing was performed in 96-well microtiter plates incubated at 37°C in a 5% O2, 5% CO2, and 90% N2 gas mixture for 72 hours. After 48 hours, 1 µCi ^3H-hypoxanthine was added to each well and the plates were read the next day using a scintillation counter.

Data set [2] concerns Plasmodium berghei ANKA (PbAus). Nature of the data set: Late-stage treatment of ECM followed by artemisone, PbAus-infected C57Bl/6 mice. On the procedure:
(§1) Plasmodium berghei ANKA (PbA; PbA MRA-311, CDC, Atlanta, GA, USA) was maintained in vivo by serial transfer of parasitized erythrocytes (PE) from infected to naïve mice. Experiments were also performed using a second strain of PbA, similarly maintained, and designated PbAus in the text (courtesy of Prof. G. Grau, University of Sydney, Australia).
(§2) Parasitemia was monitored by thin blood smears prepared from tail blood. These were stained with a 25% Giemsa solution, examined under a light microscope, and parasitemia determined as the percent of infected red blood cells per 10,000 erythrocytes. Disease severity was determined according to scoring of neurological symptoms and changes in weight and temperature, as previously described […] Parasitemias above 20% and the absence of neurological symptoms indicated severe anemic malaria.
(§3) For early ECM treatment, injections were given on days 3, 5, 7, and 9 p.i; for late treatment, treatment was given every other day, starting on day 5 p.i. for a total of at least two injections. Infected, non-treated control mice were injected with 5% dextrose or empty nSSL. Clinical signs and parasitemias were monitored and disease severity scored as described […] At each time-point, at least 3 mice from each group were chosen at random, deeply anesthetized, and brains were removed following intracardial perfusion (using saline, if organs were destined for real-time (rt)PCR analysis, or saline/formalin, if organs were destined for histopathological analysis). Organs destined for rtPCR analysis were snap-frozen in liquid nitrogen and stored at −80°C until use. Organs destined for immunohistology were immediately immersed in cryoprotectant solution (see below).

Data set [3] shares this test system. Nature of the data set: Early treatment of ECM, PbAus-inoculated C57Bl/6 mice (with sequential artemisone). As to the method: as §1, §2, §3
For data set [4] the following is noted: cited from earlier work.
The subject of data set [5] is Plasmodium berghei ANKA (PbA). Briefly: Early treatment of experimental cerebral malaria (ECM), ICR mice infected with PbA. On the procedure: as §1, §2
as §3, with “described […] Surviving mice were treated with 2×10 mg/kg/d artemisone by intraperitoneal injection in order to achieve cure; mice were monitored for four weeks post-artemisone treatment in order to allow detection of possible late recrudescence.” for “described”

The subject of data set [6] is ECM. Also on record: method as in Clemmer et al. [28]. The note with it: after the appearance of clinical signs of neuropathology; ref Clemmer et al. [28]; cited from earlier work.
Setting [7] is: 72 h culture, 3H-hypoxanthine, read-out: IC50.

As to `C[C@@H]1CC[C@H]2[C@@H](C)C(=O)O[C@@H]3O[C@@]4(C)CC[C@@H]1[C@]32OO4` [Artemisinin], the IC50 in data set [1] (setting [7]) was determined as 0.13 nM.
Regarding `C[C@H]1[C@H](N2CCS(=O)(=O)CC2)O[C@@H]2O[C@@]3(C)CC[C@H]4[C@H](C)CC[C@@H]1[C@@]24OO3` [Artemisone, reference compound], in data set [2] (2×20 mg/kg/d artemisone on days 11–15 p.i., monitored three weeks), the “Outcome of artemisone after nSSL-BMS started day 5 p.i.” value is “complete cure”. In data set [2] (all remaining mice died of severe anemic malaria), the “Outcome of artemisone after nSSL-BMS started day 7 p.i.” value was “ineffective”. In addition, the “Outcome of artemisone after nSSL-BMS started day 6 p.i.” value in data set [2] (subsequent artemisone administration) is on record as “cure in all mice”. The IC50 in data set [1] (setting [7]) stood at 0.4 nM. Moreover, the “Outcome of artemisone treatment following nSSL-BMS” value in data set [3] (2×20 mg/kg artemisone i.p. days 11–15 p.i. after early 10 mg/kg nSSL-BMS, monitored four weeks for recrudescence) is listed as “complete cure”. Besides, in data set [3] (2×20 mg/kg artemisone i.p. days 11–15 p.i. following early 10 mg/kg nSSL-BMS), the “Time to zero parasitemia after the first injection (majority of cases)” value is given as at most 24 h. Moreover, the “Mice that relapsed and died of ECM (of the total 17 administered artemisone)” value in data set [3] (2×20 mg/kg/d artemisone days 11–15 p.i. after 10 mg/kg free or nSSL-BMS) is “One”. In addition, the “Outcome of artemisone monotherapy” value in data set [3] (beginning on day 11 p.i.) was “ineffective”.
In data set [1], `CCN(CC)CCCC(C)Nc1ccnc2cc(Cl)ccc12` (stereo not shown) [Chloroquine, chloroquine] came in with an IC50 of 40 nM.
Turning to `C[C@H]1[C@@H](O)O[C@@H]2O[C@@]3(C)CC[C@H]4[C@H](C)CC[C@@H]1[C@@]24OO3` [Dihydroartemisinin, dihydroartemisinin], the IC50 in data set [1] (setting [7]) worked out at 0.1 nM.
Take `C[C@H]1C[C@@H]2[C@H]([C@@H](O)C[C@@]3(C)[C@H]2CC[C@]3(O)C(=O)COC(=O)CCC(=O)O)[C@@]2(C)C=CC(=O)C=C12` [MPS, methylprednisolone hemisuccinate sodium salt]: in data set [4] (ref [14]), the “Potency relative to hydrocortisone” value is about 5 times. Further, the IC50 in data set [1] (setting [7]) stood at 14000 nM. For the same molecule, the “Survival rate on day 11” value in data set [5] (10 mg/kg/d on days 3, 5, 7, 9 p.i.) is recorded as 33%. Besides, the “Toxicity in ECM mice” value in data set [5] (25 mg/kg/d, preliminary experiments) was “mild toxicity”.
On to `C=C[C@H]1C[N@@]2CC[C@H]1C[C@H]2[C@H](O)c1ccnc2ccc(OC)cc12` [Quinine, quinine], for which the IC50 in data set [1] (setting [7]) was 380 nM.
On to `CO[C@H]1O[C@@H]2O[C@@]3(C)CC[C@H]4[C@H](C)CC[C@@H]([C@H]1C)[C@@]24OO3` [artemether], for which the “Success rate of ECM rescue therapy” value in data set [6] was 43–46%.
Consider `C[C@H]1[C@H](OC(=O)CCC(=O)O)O[C@@H]2O[C@@]3(C)CC[C@H]4[C@H](C)CC[C@@H]1[C@@]24OO3` [artesunate], for which the “Success rate of ECM rescue therapy” value in data set [6] was 43–46%.
Consider `C[C@H]1C[C@H]2[C@@H]3CCC4=CC(=O)C=C[C@]4(C)[C@@]3(F)[C@@H](O)C[C@]2(C)[C@@]1(O)C(=O)CO` [β-methasone], for which the “Potency relative to hydrocortisone” value in data set [4] (ref [15]) was 25–30 fold.

The record behind these values is article PMC3753236, “Glucocorticosteroids in Nano-Sterically Stabilized Liposomes Are Efficacious for Elimination of the Acute Symptoms of Experimental Cerebral Malaria” (PLoS ONE, 2013).
